Where no end group is shown, it is not given here.
Tested on: prostate
Assay: Effect of S05B Peptides on tissue at sites of injection: intraprostatic infusion in rats, histology and prostate volume
Type: in vivo, Male Sprague-Dawley rats
Conditions: for Histological findings in prostate of treated rats: rat prostate after intraprostatic infusion 1.0 mg/kg, controls minimal or absent changes; for Calculated Mean Volume (mm^3) At 7 Days / Reduction in Mean Volume Compared to Controls / Histological Changes of Cell Death at 24 Hours / Histological Changes of Cell Death at 72 Hours: rat prostate; for Calculated Mean Volume (mm^3) At 7 Days: 7 days after intraprostatic infusion 1.0 mg/kg, V=4/3π(D/2)^3 from mean cross-sectional diameters, PBS control 519; for Reduction in Mean Volume Compared to Controls: 7 days, compared to PBS injection only; for Histological Changes of Cell Death at 24 Hours / Histological Changes of Cell Death at 72 Hours: intraprostatic infusion 300 μl of 1 mg/mL in PBS pH 7.4 (1.0 mg/kg), H & E sections
Method: The purpose of this example was to determine the effect of S05B Peptides on tissue at sites of injection.
Male Sprague-Dawley rats (300 gram weight range) were anesthetized with ether and given one of the above S05B Peptides by intraprostatic infusion, a control injection of normal saline or no injection after open surgical visualization of the prostate. The injections consisted of 300 μl of the S05B Peptide 1 mg/mL in PBS pH 7.4. (1.0 mg/kg) (n=85). Rats were painlessly sacrificed after 24 hours (n=18), 72 hours (n=35) and 7 days (n=32). Prostate glands were dissected, fixed in 10% buffered formalin for 24 hours, embedded in paraffin, sectioned, and stained with H & E. For each animal the entire prostate gland was embedded and sectioned. All stained sections were examined histologically. For each prostate at least 2 histological sections were examined, and for each histological section from the 7 day group two cross-sectional diameters (D) at 90° from each other were measured (total of >8 measurements per prostate). The mean of the cross-sectional diameters (D) for each group was used to estimate volume according to V=4/3π(D/2)^3 and the mean volume calculated for each group. Histological changes were assessed on the following scale:
+++ Present, Moderate and Diffuse
++++ Present, Diffuse and Extensive

Row | Substance | Histological findings in prostate of treated rats | Calculated Mean Volume (mm^3) At 7 Days [mm^3] | Reduction in Mean Volume Compared to Controls [%] | Histological Changes of Cell Death at 24 Hours | Histological Changes of Cell Death at 72 Hours
1 | DQQVLS [S05B-2] | extensive cell death, necrosis, loss of glandular epithelium and atrophy | 289 | 44 | +++ | +++
2 | DQQVLSRI [S05B-3] | extensive cell death, necrosis, loss of glandular epithelium and atrophy | 289 | 44 | +++ | +++
3 | IDQQVL [S05B-4] | extensive cell death, necrosis, loss of glandular epithelium and atrophy | 358 | 31 | ++ | ++
